Reference: patent US20260274819A1, “ULK1 INHIBITOR, PREPARATION METHOD THEREFOR AND USE THEREOF” (DOVETREE MEDICINES UNUS, INC., priority 2023, published 2026)
pIC50: −log10 of the molar value.

Columns and labels:
ULK1 = target: T1, ULK1 (Homo sapiens, UniProt O75385); test: Inhibition of ULK1 protein activity (ADP-Glo method); format: biochemical; details: ULK1 enzyme, ATP and MBP substrate, 60 min room temperature
T1 construct: purchased Promega V3521
T1 sequence (O75385 1-649 limits assumed): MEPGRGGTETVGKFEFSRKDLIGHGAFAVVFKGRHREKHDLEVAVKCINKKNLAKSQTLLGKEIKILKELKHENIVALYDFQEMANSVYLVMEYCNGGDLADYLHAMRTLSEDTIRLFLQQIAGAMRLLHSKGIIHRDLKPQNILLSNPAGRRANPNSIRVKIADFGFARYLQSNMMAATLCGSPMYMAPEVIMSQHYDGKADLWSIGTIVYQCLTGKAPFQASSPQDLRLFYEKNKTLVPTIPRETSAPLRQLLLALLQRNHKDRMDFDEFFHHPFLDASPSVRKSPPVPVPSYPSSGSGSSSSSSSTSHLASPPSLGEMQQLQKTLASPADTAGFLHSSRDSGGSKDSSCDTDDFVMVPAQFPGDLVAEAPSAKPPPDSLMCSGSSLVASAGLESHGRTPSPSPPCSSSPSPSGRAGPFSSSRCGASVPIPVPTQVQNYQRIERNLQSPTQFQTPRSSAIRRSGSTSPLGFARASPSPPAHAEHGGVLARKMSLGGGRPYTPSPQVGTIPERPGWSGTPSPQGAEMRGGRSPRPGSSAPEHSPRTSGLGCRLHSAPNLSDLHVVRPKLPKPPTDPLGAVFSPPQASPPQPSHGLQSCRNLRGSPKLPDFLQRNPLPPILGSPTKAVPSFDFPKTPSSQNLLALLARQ
Protocol: In this experiment, the inhibitory effect of a compound on the phosphorylation function of ULK1 was detected by ADP-Glo method. The inhibitory effect of the compound of the present disclosure on the ULK1 target was evaluated based on IC50.
Compound formulation: Using an ECHO (Beckman, ECHO650), the compound was serially diluted 3-fold in DMSO in a 384-well plate (PE, 6007290). A total of 10 concentration points were set, with the maximum concentration of the compound being 10 μM, and 50 nL per well. Positive control wells and negative control wells were added with 50 nL DMSO, respectively.
Reaction process: A 32 nM of ULK1 (Promega, V3521) solution was formulated, and 2.5 μL/well was transferred to the compound test wells and the negative control wells (NC). 2.5 μL/well of 1× Assay buffer was added to the positive control wells (PC). A mixed solution of 100 μM of ATP and 1.86 μM of MBP was formulated, and 2.5 μL/well was transferred to the reaction plate. After centrifugation, the reaction was initiated and incubated at room temperature for 60 min. After the reaction was completed, 5 μL/well of ADP-Glo Reagent (Promega, V9102) was added to the reaction plate. After centrifugation, the reaction was incubated at room temperature for 40 minutes. Finally, 10 μL/well of Kinase Detection Buffer was added, followed by centrifugation and incubation at room temperature for 30 min. The chemiluminescence value was read using Envision (PE, Envision2105).
Assay buffer: a reaction buffer; and Kinase Detection buffer: a detection buffer, both were taken from the ADP-Glodetection kit, purchased from Promega, model V9102. 3. Data analysis
The inhibition ratio of a compound on ULK1 activity was calculated using the following formula:
Inhibition ratio=(sample signal value−negative control signal value)/(positive control signal value−negative control signal value)×100%. The dose-effect curve was fitted using the log(inhibitor) vs. response -Variable slope of the analysis software GraphPad Prism 8, thereby affording the IC50 value of each compound for enzyme activity.

[1] = tested on: ATG13 phosphorylation level in MIA PaCa-2 cells; test: Inhibition of ATG13 phosphorylation level in MIA PaCa-2 cells (pATG13 ELISA); format: cell-based; details: Homo sapiens, Torin1 100 nM, 24 h incubation, Phospho-Atg13 (ser355)
Protocol: The inhibitory effect of the compound of the present disclosure on ULK1 was evaluated by testing the inhibitory effect of the compound of the present disclosure on ATG13 phosphorylation level in MIA PaCa-2 cells.
MIA PaCa-2 cells (ATCC, CRM-CRL-1420) were cultured in a complete medium, namely, a DMEM medium (Gibco, 11965-092) containing 10% fetal bovine serum (Corning, 35-081-CV), 2.5% horse serum (Gibco, 16050-122) and 1% double antibody (Gibco, 15140-122). The experiments were performed according to the requirements of the kit (Cell Signaling Technology, 17208C).
Cell plating: MIA PaCa-2 at 80% growth confluence were digested, diluted with the complete medium, and added to a 96-well cell culture plate (Costar, 3596) at 20,000 cells per well, with a volume of 90 μL.
Compound incubation: 5 μL of Torin1 and 5 μL of a serially diluted compound were added to each well so that the highest concentration of the compound in the reaction system was 10 μM. 5-fold serial dilution with 8 concentrations was performed, and the final concentration of Torin1 was 100 nM. The DMSO content in the system was 0.1%. The reaction plate was placed in an incubator at 37° C. in 5% CO2, and was incubated for 24 h. 10 μL of Torin1 was added to the negative control wells (NC) to a final concentration of 100 nM, with a DMSO content of 0.1%.
Reaction detection: After the incubation was completed, the cell plate was washed with a pre-cooled DPBS (Corning, 21-031-CVC) to wash away the compound and medium. 50 μL of pre-cooled cell lysis solution was added to each well, incubated on ice for 10 min. The cell plate was centrifuged, and the supernatant was transferred to an ELISA reaction plate. Simultaneously, 50 μL of Phospho-Atg13 (ser355) rabbit detection antibody was added, followed by incubation at room temperature under shaking for 60 min. After the incubation was completed, the reaction plate was washed with a washing solution for 4 times. 100 μL of TMB substrate was added for color development reaction, followed by incubation under shaded conditions with shaking for 15 min. Finally, 100 μL of stop solution was added to each well. The reaction was terminated by shaking for 10 s, and the absorbance value at 450 nm and 560 nm were collected within 10 min using Envision (Perkin Elmer, EnVision 2105).
The inhibition ratio was calculated by subtracting the absorbance value at […] from the absorbance value at 450 nm for each well. The inhibition ratio formula is as follows: inhibition ratio=(sample signal value−negative control signal value)/(positive control signal value -negative control signal value)×100%.
The dose-effect curve was fitted using the log (inhibitor) vs. response -Variable slope of Graphpad Prism8, thereby affording the IC50 value of each compound for inhibiting ATG13 phosphorylation level.

[2] = tested on: HEK293 GFP-LC3 stably transfected cells; test: Inhibition of autophagy level in HEK293 GFP-LC3 stably transfected cells (autophagic flux); format: cell-based; details: Homo sapiens, Torin1 100 nM, 24 h, GFP fluorescence
Protocol: The inhibitory effect of the compound of the present disclosure on intracellular autophagy was evaluated by testing the impact of the compound of the present disclosure on the fluorescence intensity of HEK293 GFP-LC3 stably transfected cells.
HEK293 GFP-LC3 stably transfected cells (HEK293, ATCC, CRL-1573) were cultured in a complete medium, namely, a DMEM medium (Gibco, 11965-092) containing 10% fetal bovine serum (Corning, 35-081-CV), 1% double antibody (Gibco, 15140-122) and 1 μg/mL of Puromycin (Invitrogen-A1113803).
Cell plating: HEK293 GFP-LC3 stably transfected cells at 80% growth confluence were digested, diluted with a medium free of Puromycin, and added to a 96-well cell culture plate (Geriner, 655090) at 12,000 cells per well, with a volume of 90 μL.
Compound incubation: 5 μL of Torin1 and 5 μL of a serially diluted compound were added to each well so that the highest concentration of the compound in the reaction system was 10 μM. 3-fold serial dilution with 8 concentrations was performed, and the final concentration of Torin1 was 100 nM. The DMSO content in the system was 0.1%. The positive control wells (PC) contain DMSO at a final concentration of 0.1%, and the negative control wells (NC) contain 100 nM of Torin1 with 0.1% of DMSO. The reaction plate was placed in an incubator at 37° C. in 5% CO2, and was incubated for 24 h.
Cell staining and fixation: The cell plate was taken out, and 10 μL of Hochest33342 nuclear staining reagent (Thermo, H1399) was added to each well, followed by incubation at 37° C. in 5% CO2 for 30 min. After the incubation was completed, the cell supernatant was discarded, and 100 μL of pre-cooled 4% paraformaldehyde was added to each well to fix the cells for 15 min. Then, the fixative was discarded, and 100 μL of PBS was added to each well. Images were captured for analysis using a high-content cell imaging analyzer (PE, Operetta CLS), and GFP fluorescence signals were collected for data processing.
The average GFP fluorescence signal intensity in the reaction wells was collected for the calculation of the inhibition ratio:
The dose-effect curve was fitted using the log(inhibitor) vs. response -Variable slope of Graphpad Prism8, thereby affording the IC50 value of each compound for inhibiting autophagy level in HEK293 GFP-LC3 stably transfected cells.

SMILES	pIC50 (ULK1)	pIC50 [1]	pIC50 [2]
CN1CCN(c2ccc(Nc3ncc(C(F)(F)F)c(OCCCN4CCCCC4=O)n3)c(C3CC3)c2)CC1 [Example 1]	> 7.00	6.00 to 7.00	6.00 to 7.00
CN1CCN(c2ccc(Nc3ncc(C(F)(F)F)c(NC4CCN(C(=O)C5CCC5)CC4)n3)c(C3CC3)c2)CC1 [Example 20]	> 7.00	< 6.00	< 6.00
CN1CCN(c2ccc(Nc3ncc(C(F)(F)F)c(N4CCC5(CCN(C)CC5)CC4)n3)c(C3CC3)c2)CC1 [Example 51]	> 7.00	< 6.00	6.00 to 7.00
CN1CCN(c2ccc(Nc3ncc(C(F)(F)F)c(N4CC5(CN(C)C5)C4)n3)c(C3CC3)c2)CC1 [Example 24]	> 7.00	6.00 to 7.00	6.00 to 7.00
CN1CCN(c2ccc(Nc3ncc(C(F)(F)F)c(N4CCC(n5cccn5)CC4)n3)c(C3CC3)c2)CC1 [Example 14]	> 7.00	> 7.00	< 6.00
CN1CCN(c2ccc(Nc3ncc(C(F)(F)F)c(OCCCn4cccn4)n3)c(C3CC3)c2)CC1 [Example 29]	> 7.00	6.00 to 7.00	6.00 to 7.00
CN1Cc2cc(Nc3ncc(C(F)(F)F)c(OCCCN4CCCCC4=O)n3)ccc2C2(CC2)C1 [Example 49]	> 7.00	> 7.00	> 7.00
CN1CCN(c2ccc(Nc3ncc(C(F)(F)F)c(N4CCC5(CCN(C)C5)CC4)n3)c(C3CC3)c2)CC1 [Example 19]	> 7.00	< 6.00	6.00 to 7.00
CN1CCN(c2ccc(Nc3ncc(C(F)(F)F)c(NCCCn4cccn4)n3)c(C3CC3)c2)CC1 [Example 30]	> 7.00	< 6.00	< 6.00
CN1CCc2cc(Nc3ncc(C(F)(F)F)c(N4CCN(C)C(=O)C4)n3)ccc2C1 [Example 15]	> 7.00	6.00 to 7.00	6.00 to 7.00
CN1CCN(c2ccc(Nc3ncc(C(F)(F)F)c(N4CCC5(CCN(C)C5)C4)n3)c(C3CC3)c2)CC1 (stereo not drawn) [Example 26]	> 7.00	6.00 to 7.00	< 6.00
CN1CCN(c2ccc(Nc3ncc(C(F)(F)F)c(N[C@H]4CC[C@@H](n5cccn5)CC4)n3)c(C3CC3)c2)CC1 [Example 32]	> 7.00	6.00 to 7.00	< 6.00
CN1CCN(c2ccc(Nc3ncc(C(F)(F)F)c(N4CCC5(CCN(C)CC5)C4)n3)c(C3CC3)c2)CC1 [Example 53]	> 7.00	6.00 to 7.00	< 6.00
CN1CCN(c2ccc(Nc3ncc(C(F)(F)F)c(N4CCN(C)C(=O)C4)n3)c(C3CC3)c2)CC1 [Example 5]	> 7.00	< 6.00	< 6.00
